Measurements reported in PMC9596378, “Discovery and molecular basis of subtype-selective cyclophilin inhibitors” (Nature Chemical Biology, 2022).
Where “and” joins values, the source holds several entries; their conditions need not be identical. Equal entries are not always repeated.

How the values were obtained:
[1] = molecular target: Cyp40 (Homo sapiens, UniProt Q08752); test: Chymotrypsin coupled prolyl-isomerase assay; settings: for prolyl-isomerase activity (raw dose-response value): in s^-1
Method: (§1) Adapting a previously described protocol, with an Agilent Bravo Velocity 11 with a 384ST head, 90 µL assay buffer (25 mM HEPES pH 7.3, 100 mM NaCl, 0.01% Triton X-100) containing 5.28 nM cyclophilin was added into a flat, clear-bottom, black 384-well plate pre-chilled in a Corning CoolBox at 2–3 °C. Five microliters of compound pre-dissolved in 5% DMSO/assay buffer was then added to appropriate wells and incubated at 2–3 °C for 5 min. Five microliters of 0.5 mM α-chymotrypsin from bovine pancreas (Type II, lyophilized powder, Millipore-Sigma) in 20% 1 mM HCl/Assay Buffer was then added to each well and incubated at 2–3 °C for 5 min. The plate was then quickly transferred to a FLIPR Tetra High-Throughput Cellular Screening System (Molecular Devices). Using the internal liquid handling system of the FLIPR, 1 µL 0.5 mM Suc-AAPF-AMC (Chymotrypsin Substrate II, Millipore-Sigma) dissolved in 0.55 M LiCl/2,2,2-trifluoroethanol was added to each well, which was then mixed for 5 s, followed by immediate fluorescence measurements every 1 s for 330 s using a 360–380 nm excitation LED module and a 400–460 nm emission filter. Final concentrations of the plate include 5 nM cyclophilin, 0.25% DMSO, 25 µM α-chymotrypsin, 5 µM Suc-AAPF-AMC. Raw fluorescence data was analyzed by non-linear regression analysis with Prism v.9 by fitting one-phase association curves to each well. […] Rate constants calculated for each well (s^−1) were then normalized to substrate only (no prolyl-isomerase) and enzyme + substrate only controls. IC50 values were calculated as the value at which 50% inhibition was achieved on the non-linear regression fitted curve of each compound.

[2] = molecular target: T1, CypB (Homo sapiens, UniProt P23284); test: biochemical; settings: for prolyl-isomerase activity (raw dose-response value): CypB
T1 construct: PPIB (UniProtKB Entry P23284: residues 34–216); His6 with TEV site (2BT vector leader) (N); made in house; host or cells: E. coli BL21(DE3)
Method: as §1

[3] = molecular target: T2, NKTR (Homo sapiens, UniProt P30414); test: Chymotrypsin coupled prolyl-isomerase assay; assay type: biochemical; settings: for prolyl-isomerase activity (raw dose-response value): NKTR
T2 construct: NKTR (UniProtKB Entry P30414: residues 7–179); host or cells: E. coli BL21(DE3)
T2 sequence (P30414 7-179): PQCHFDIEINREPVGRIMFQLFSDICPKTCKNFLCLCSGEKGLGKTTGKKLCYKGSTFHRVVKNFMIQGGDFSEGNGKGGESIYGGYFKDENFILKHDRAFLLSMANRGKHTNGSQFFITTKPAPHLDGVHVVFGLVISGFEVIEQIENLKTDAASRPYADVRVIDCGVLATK

[4] = molecular target: T3, CypH (Homo sapiens, UniProt O43447); test: Chymotrypsin coupled prolyl-isomerase assay; assay type: biochemical; settings: for prolyl-isomerase activity (raw dose-response value): CypH
T3 construct: PPIH (UniProtKB Entry O43447: residues 1–177); His6 with TEV site (2BT vector leader) (N); made in house; host or cells: E. coli BL21(DE3)
Method: as §1

[5] = molecular target: T4, CypA (Homo sapiens, UniProt P62937); test: Chymotrypsin coupled prolyl-isomerase assay; assay type: biochemical; settings: CypA, in s^-1
T4 construct: PPIA (UniProtKB Entry P62937: residues 1–165); made in house; host or cells: E. coli BL21(DE3)
Method: as §1

T3 sequence (O43447 whole entry, the tested form may be a part): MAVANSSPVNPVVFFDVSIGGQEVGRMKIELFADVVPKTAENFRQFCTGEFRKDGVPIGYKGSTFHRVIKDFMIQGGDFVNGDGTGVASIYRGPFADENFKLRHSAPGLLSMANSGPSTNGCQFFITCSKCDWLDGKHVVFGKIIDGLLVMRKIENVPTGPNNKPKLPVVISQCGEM
Cyp40, sequence (Q08752 1-183): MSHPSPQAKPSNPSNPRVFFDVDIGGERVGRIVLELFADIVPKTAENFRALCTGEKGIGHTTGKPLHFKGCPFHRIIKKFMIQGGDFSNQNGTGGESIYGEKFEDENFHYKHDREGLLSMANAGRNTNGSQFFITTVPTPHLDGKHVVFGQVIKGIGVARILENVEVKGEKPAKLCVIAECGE
T4 sequence (P62937 whole entry, the tested form may be a part): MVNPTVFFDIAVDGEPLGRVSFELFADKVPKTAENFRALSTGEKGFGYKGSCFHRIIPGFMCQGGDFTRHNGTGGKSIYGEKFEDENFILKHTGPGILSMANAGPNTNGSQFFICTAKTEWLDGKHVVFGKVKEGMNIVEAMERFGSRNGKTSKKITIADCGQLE
T1 sequence (P23284 34-216): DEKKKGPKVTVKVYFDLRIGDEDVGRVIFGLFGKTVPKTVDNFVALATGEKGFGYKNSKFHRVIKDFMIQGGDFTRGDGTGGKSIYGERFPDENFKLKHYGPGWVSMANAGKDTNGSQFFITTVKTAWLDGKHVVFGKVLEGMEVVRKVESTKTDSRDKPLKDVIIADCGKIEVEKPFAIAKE

NCCOCCNC(=O)[C@@H]1CCNC(=O)/C=C/C(=O)N2CCC[C@](Cc3ccccc3)(C2)C(=O)N[C@@H](Cc2ccc(C(=O)c3ccccc3)cc2)C(=O)NCc2ccccc2CC(=O)N1 [Compound B1]
prolyl-isomerase activity (raw dose-response value) ([1]; Cyp40, dose 0.0228624 µM): 0.05537 and 0.05091 and 0.0526 | prolyl-isomerase activity (raw dose-response value) ([1]; Cyp40, dose 0.0685871 µM): 0.04831 and 0.04914 and 0.04761 | prolyl-isomerase activity (raw dose-response value) ([1]; Cyp40, dose 0.205761 µM): 0.03428 and 0.03147 and 0.03197 | prolyl-isomerase activity (raw dose-response value) ([1]; Cyp40, dose 0.617284 µM): 0.02396 and 0.01982 and 0.02092 | prolyl-isomerase activity (raw dose-response value) ([1]; Cyp40, dose 1.85185 µM): 0.01751 and 0.01672 and 0.01432 | prolyl-isomerase activity (raw dose-response value) ([1]; Cyp40, dose 5.55556 µM): 0.0143 and 0.01339 and 0.01386 | prolyl-isomerase activity (raw dose-response value) ([1]; Cyp40, dose 16.6667 µM): 0.01332 and 0.01439 and 0.01303 | prolyl-isomerase activity (raw dose-response value) ([1]; Cyp40, dose 50 µM): 0.01384 and 0.01317 and 0.01466 | IC50 ([1]; Wild-Type Cyclophilin Prolyl Isomerase Inhibition IC50 Values, Cyp40, wild-type Cyp40): 50 nM | prolyl-isomerase activity (raw dose-response value) ([2]; dose 0.00114312 µM): 0.08676 and 0.07612 and 0.1045 | prolyl-isomerase activity (raw dose-response value) ([2]; dose 0.00342935 µM): 0.09293 and 0.08942 and 0.1133 | prolyl-isomerase activity (raw dose-response value) ([2]; dose 0.0102881 µM): 0.05857 and 0.07024 and 0.08235 | prolyl-isomerase activity (raw dose-response value) ([2]; dose 0.0308642 µM): 0.06507 and 0.05219 and 0.06265 | prolyl-isomerase activity (raw dose-response value) ([2]; dose 0.0925926 µM): 0.05131 and 0.04637 and 0.04858 | prolyl-isomerase activity (raw dose-response value) ([2]; dose 0.277778 µM): 0.03303 and 0.03453 and 0.03517 | prolyl-isomerase activity (raw dose-response value) ([2]; dose 0.833333 µM): 0.03176 and 0.0219 and 0.02127 | prolyl-isomerase activity (raw dose-response value) ([2]; dose 2.5 µM): 0.01492 and 0.01697 and 0.01392 | IC50 ([2]; wild-type CypB, read-out: Wild-Type Cyclophilin Prolyl Isomerase Inhibition IC50 Values, CypB): 30 nM | prolyl-isomerase activity (raw dose-response value) ([3]; dose 6.125 µM): 0.03455 and 0.03286 and 0.03325 | prolyl-isomerase activity (raw dose-response value) ([3]; dose 12.5 µM): 0.03629 and 0.03152 and 0.03174 | prolyl-isomerase activity (raw dose-response value) ([3]; dose 25 µM): 0.03462 and 0.03246 and 0.03111 | prolyl-isomerase activity (raw dose-response value) ([3]; dose 50 µM): 0.03275 and 0.03195 and 0.02857 | prolyl-isomerase activity (raw dose-response value) ([3]; dose 100 µM): 0.02401 and 0.02915 and 0.0269 | IC50 ([3]; wild-type NKTR, read-out: Wild-Type Cyclophilin Prolyl Isomerase Inhibition IC50 Values, NKTR): > 100000 nM | prolyl-isomerase activity (raw dose-response value) ([4]; dose 0.0228624 µM): 0.05823 and 0.06198 and 0.07295 | prolyl-isomerase activity (raw dose-response value) ([4]; dose 0.0685871 µM): 0.0659 and 0.06156 and 0.06865 | prolyl-isomerase activity (raw dose-response value) ([4]; dose 0.205761 µM): 0.06027 and 0.0617 and 0.06475 | prolyl-isomerase activity (raw dose-response value) ([4]; dose 0.617284 µM): 0.05924 and 0.06278 and 0.06988 | prolyl-isomerase activity (raw dose-response value) ([4]; dose 1.85185 µM): 0.05446 and 0.06201 and 0.06094 | prolyl-isomerase activity (raw dose-response value) ([4]; dose 5.55556 µM): 0.05231 and 0.05643 and 0.05555 | prolyl-isomerase activity (raw dose-response value) ([4]; dose 16.6667 µM): 0.04539 and 0.04092 and 0.04707 | prolyl-isomerase activity (raw dose-response value) ([4]; dose 50 µM): 0.02854 and 0.02769 and 0.02761 | IC50 ([4]; wild-type CypH, read-out: Wild-Type Cyclophilin Prolyl Isomerase Inhibition IC50 Values, CypH): 20000 nM | prolyl-isomerase activity (raw dose-response value) ([5]; dose 0.00114312 µM): 0.07489 and 0.0818 and 0.1208 | prolyl-isomerase activity (raw dose-response value) ([5]; dose 0.00342935 µM): 0.107 and 0.09816 and 0.1302 | prolyl-isomerase activity (raw dose-response value) ([5]; dose 0.0102881 µM): 0.09417 and 0.08156 and 0.09814
